Results reported in US20250289812A1, “COMPOUND FOR TREATING THROMBOTIC DISEASES” (SHANGHAI INSTITUTE OF MATERIA MEDICA, CHINESE ACADEMY OF …, priority 2020, published 2025).

How the values were obtained:
[1] = tested on: platelets on solid phase fibrinogen; experiment: Effect of compound on platelet stretching on solid phase fibrinogen; type: cell-based; conditions: 1 h, washed platelets, incubated 60 min at 37° C., read-out: Concentration range for compounds that inhibit platelet stretching on fibrinogen
Procedure: 1. Experimental method: Firstly, 50 μl fibrinogen (0.1M, diluted with pH 8.3 sodium bicarbonate, 20 μg/ml) was added to 96-well plate, and coated overnight at 4° C. After being washed by PBS for 3 times in the morning, sealed with bovine serum albumin (20 mg/ml) at 37° C. for 60 min, then 100 μl of washed platelet suspension was taken, and added into compounds in each group to make the final concentration 250 μM, and incubated at 37° C. for 60 min. 50 μl of incubated platelets were added to 96-well plate, adhered in a temperature box at 37° C. for 60 min, unadhered platelets were removed by PBS washing for 3 times, and adhered platelets were stably fixed with 4% paraformaldehyde, and washed with PBS for 3 times. Then the platelet membrane was perforated with 0.5% Triton X-100, and then the platelet was stained with 0.5 μg/ml phalloidin-rhodamine for 60 min at 37° C. and washed 3 times (10 min each) with PBS.
2. Experimental results and conclusions: The concentration of different compounds on platelet stretching on fibrinogen was shown in Table 3, and the inhibitory effect of some compounds on platelet stretching was shown in FIG. 2.

[2] = target: Src kinase SH3 domain protein (Homo sapiens (Human), UniProt P12931); experiment: Surface plasmon resonance (SPR) determination of dissociation constants with SH3 protein; type: binding; conditions: SH3 protein coupled to CM5 chip
Procedure: 1. Experimental method: Surface plasmon resonance test was carried out on BIACORE T200 instrument (GE Company). Fresh purified grade Src kinase SH3 domain protein (concentration 2 mg/ml) was diluted to 0.1 mg/ml with 10 mM CH3COONa (pH 4.2) and then SH3 protein was coupled to the CM5 chip by standard amino coupling methods. The compounds of the invention were diluted in a gradient using a buffer solution (20 mM Tris-HCl, PH 8.0, 100 mM NaCl) for 60 seconds and dissociated for 120 seconds at a flow rate of […], respectively. The changes in response values over time were recorded and analyzed by the BIA Evaluation Software (GE Healthcare) program to obtain the dissociation constants KD for the different compounds with SH3 protein.
2. Experimental results and conclusions: The dissociation constants KD of different compounds and SH3 protein were described in Table 2, and the surface plasmon resonance (SPR) experimental results of some compounds were shown in FIG. 1.

Chain of Src kinase SH3 domain protein (P12931 whole entry, looked up, the tested form may be a part): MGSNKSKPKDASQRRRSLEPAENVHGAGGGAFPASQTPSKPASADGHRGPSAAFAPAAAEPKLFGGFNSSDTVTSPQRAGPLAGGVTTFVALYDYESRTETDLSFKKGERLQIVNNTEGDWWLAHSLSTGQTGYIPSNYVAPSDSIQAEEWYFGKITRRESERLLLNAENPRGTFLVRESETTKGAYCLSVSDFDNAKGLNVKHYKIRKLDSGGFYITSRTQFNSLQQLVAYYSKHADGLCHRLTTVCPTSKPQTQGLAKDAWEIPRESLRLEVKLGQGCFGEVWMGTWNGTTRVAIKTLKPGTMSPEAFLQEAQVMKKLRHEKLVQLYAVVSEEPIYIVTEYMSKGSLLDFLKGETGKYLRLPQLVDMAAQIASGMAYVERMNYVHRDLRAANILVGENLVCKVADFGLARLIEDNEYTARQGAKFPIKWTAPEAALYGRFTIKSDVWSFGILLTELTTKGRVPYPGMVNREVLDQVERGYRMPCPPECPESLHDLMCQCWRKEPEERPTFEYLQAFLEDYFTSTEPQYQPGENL

Structure (SMILES)	minimal effective concentration [1] [µM]	Kd [2] [µM]
CCOC(=O)c1c(CNC(=N)N)n(C)c2cc(C3CC3)c(-c3cccc4ccccc34)cc12 [SYY-C120]	10 to 100	< 1
CCOC(=O)c1c(CNC(=N)N)sc2cc(-c3cccc4ccccc34)c(C3CCCC3)cc12 [SYY-C121]	100 to 250	1 to 10
CCOC(=O)c1c(CNC(=N)N)sc2cc(-c3cccc4ccccc34)c(C3CCCCC3)cc12 [SYY-C122]	10 to 100	< 1
CCOC(=O)c1c(CNC(=N)N)sc2cc(-c3cccc4ccccc34)c(C3=CCCC3)cc12 [SYY-C123]	100 to 250	10 to 100
CCOC(=O)c1c(CNC(=N)N)sc2cc(-c3cccc4ccccc34)c(C3=CCCCC3)cc12 [SYY-C124]	10 to 100	< 1
CCOC(=O)c1c(CNC(=N)N)sc2cc(-c3cccc4ccccc34)c(OC)cc12 [SYY-C125]	10 to 100	< 1
CCOC(=O)c1c(CNC(=N)N)sc2cc(-c3cccc4ccccc34)c(OC3CCCC3)cc12 [SYY-C126]	10 to 100	< 1
CCOC(=O)c1c(CNC(=N)N)sc2cc(-c3cccc4ccccc34)c(OC3CCCCC3)cc12 [SYY-C127]	10 to 100	< 1
CCOC(=O)c1c(CNC(=N)N)sc2cc(-c3cccc4ccccc34)c(Oc3ccccc3)cc12 [SYY-C128]	100 to 250	10 to 100
CCOC(=O)c1c(CNC(=N)N)sc2cc(-c3cccc4ccccc34)c(Oc3ccncc3)cc12 [SYY-C129]	10 to 100	< 1
CCOC(=O)c1c(CNC(=N)N)sc2cc(-c3cccc4ccccc34)c(C3=CCCc4ccccc43)cc12 [SYY-C130]	100 to 250	10 to 100
CCOC(=O)c1c(CNC(=N)N)sc2cc(-c3cccc4ccccc34)c(C3CCCc4ccccc43)cc12 (stereo not drawn) [SYY-C131]	100 to 250	10 to 100
